Values quoted from earlier work as cited in US20110077395A1, “INHIBITORS OF 11-BETA HYDROXYSTEROID DEHYDROGENASE TYPE I” (Bristol-Myers Squibb Company, priority 2005, published 2011).

Test system: hepatic glucose production
Details: mildly overweight individuals with type 2 diabetes, seven days, versus placebo

With `CC1(C)[C@@H](OC(=O)CCC(=O)O)CC[C@]2(C)[C@H]3C(=O)C=C4[C@@H]5C[C@@](C)(C(=O)O)CC[C@]5(C)CC[C@@]4(C)[C@]3(C)CC[C@@H]12` [carbenoxolone] as the compound, how does the hepatic glucose production read?
The hepatic glucose production was “decrease in hepatic glucose production”.
